Test results taken from patent US7501384B2, “Crystalline modification of the anhydrate of boscalid” (BASF Aktiengesellschaft, priority 2003, dated 2009).

Test: Tank mixing compatibility: 5% suspension of water-dispersible granules in CIPAC D water mixed with 1% Solvesso 200, stored, solid residue on 75 μm sieve determined
Format: physicochemical
Protocol: Comparison of the Tank Mixing Compatibility: For this purpose, both water-dispersible granules of the above composition, comprising anhydrate of the compound of the formula I of modification I (formulation A), and water-dispersible granules of anhydrate of the compound of the formula I of modification II (formation B) were prepared. A 5% strength suspension of the respective water-dispersible granules in CIPAC D water (Ca^++/Mg^++ (4:1) hardness of 342 ppm and pH of from 6.0 to 7.0 was then prepared. This suspension was then mixed with 1% of Solvesso 200 (mixture of aromatic hydrocarbons) as a typical solvent for solvent-containing liquid formulations (e.g. EC). The corresponding spray liquor was then stored over a certain period at a certain temperature. For assessing the quality, the solid residue on a 75 μm sieve was determined after the storage.

O=C(Nc1ccccc1-c1ccc(Cl)cc1)c1cccnc1Cl [modification II, 2-chloro-N-(4′-chlorobiphenyl-2-yl)-nicotinamide]
crystal growth in the presence of solvents: scarcely any crystal growth
